Bridge positions count the residues as written; N and C are the ends. Square brackets hold non-standard residues; d marks the D form. Peptide text beside a SMILES is read from it. I, II: the chains in the order shown. * marks the point of attachment. Quinaldoyl(3-OH) = O=C(c1nc2ccccc2cc1O)*; NMeC = CN[C@@H](CS)C(=O)O; dDap = NC[C@@H](N)C(=O)O
Key:
[1] = tested on: MDA-MB-231; assay: SRB colorimetric cytotoxicity assay, MDA-MB-231; format: cell-based, human; conditions: MDA-MB-231, 48 hours exposure; for CC50: read-out: LC50 (the source's name)
Source text: (§1) The aim of this assay is to evaluate the in vitro cytostatic (ability to delay or arrest tumor cell growth) or cytotoxic (ability to kill tumor cells) activity of the samples being tested.
(§2) A colorimetric type of assay, using sulforhodamine B (SRB) reaction has been adapted for a quantitative measurement of cell growth and viability (following the technique described by Skehan P et al. J. Natl. Cancer Inst. 1990, 82, 1107-1112).
(§3) This form of assay employs SBS-standard 96-well cell culture microplates (Faircloth et al. Methods in cell science, 1988, 11(4), 201-205; Mosmann et al. Journal of. Immunological. Methods, 1983, 65(1-2), 55-63). All the cell lines used in this study, derived from different types of human cancer, were obtained from the American Type Culture Collection (ATCC).
(§4) Cells were maintained in Dulbecco's Modified Eagle Medium (DMEM) supplemented with 10% Fetal Bovine Serum (FBS), 2 mM L-glutamine, 100 U/mL penicillin and 100 U/mL streptomycin at 37° C., 5% CO2 and 98% humidity. For the experiments, cells were harvested from subconfluent cultures using trypsinization and resuspended in fresh medium before counting and plating.
(§5) Cells were seeded in 96 well microtiter plates at 5×10^3 cells per well in aliquots of 150 μL, and allowed to attach to the plate surface for 18 hours in drug free medium. One control (untreated) plate of each cell line was fixed (as described below) and used for time zero reference value. Afterwards, test samples were added to the cultures in ten serial dilutions, in aliquots of 50 μL, ranging from 10 to 0.00262 μg/mL. After 48 hours exposure, the antitumor effect was estimated by the SRB method: Briefly, cells were washed twice with PBS, fixed for 15 min in 1% glutaraldehyde solution, rinsed twice in PBS, and stained in 0.4% SRB solution for 30 min at room temperature. Cells were then rinsed several times with 1% acetic acid solution and air-dried. SRB was then extracted in 10 mM trizma base solution and the absorbance measured in an automated spectrophotometric plate reader at 490 nm. Cell survival was expressed as percentage of control cell growth. The final effect of the sample being tested was estimated by applying the NCl algorithm (Boyd M R and Paull K D. Drug Dev. Res. 1995, 34, 91-104).
(§6) Using the mean±SD of triplicate cultures, a dose-response curve was automatically generated using nonlinear regression analysis. Three reference parameters were calculated (NCl algorithm) by automatic interpolation: GI50=concentration that produces 50% growth inhibition; TGI=total growth inhibition (cytostatic effect) and LC50=concentration that produces 50% net cell killing (cytotoxic effect).

[2] = tested on: HT29; assay: SRB colorimetric cytotoxicity assay, HT29; format: cell-based, human; conditions: HT29, 48 hours exposure; for CC50: read-out: LC50 (the source's name)
Source text: as §1, §2, §3, §4, §5, §6

[3] = tested on: A549; assay: SRB colorimetric cytotoxicity assay, A549; format: cell-based, human; conditions: A549, 48 hours exposure; for CC50: read-out: LC50 (the source's name)
Source text: as §1, §2, §3, §4, §5, §6

[4] = tested on: leukemia cell line L1210; conditions: Boger and Lee 2000; cited from earlier work

Compound: CSC[C@H]1C(=O)NC[C@@H](NC(=O)c2nc3ccccc3cc2O)C(=O)NCC(=O)N(C)[C@H]2CSSC[C@@H](C(=O)N1C)N(C)C(=O)CNC(=O)[C@H](NC(=O)c1nc3ccccc3cc1O)CNC(=O)[C@H](CSC)N(C)C2=O [Azathiocoraline] (I: {Quinaldoyl(3-OH)}-[dDap]G[NMeC][NMeC](Me) / II: {Quinaldoyl(3-OH)}-[dDap]G[NMeC][NMeC](Me); amide I:1-II:C, I:C-II:1; disulfide I:3-II:3)
- GI50 [1]: 2140 nM
- TGI [1]: >8.90E−06 Molar
- CC50 [1]: > 8900 nM
- GI50 [2]: 3120 nM
- TGI [2]: >8.90E−06 Molar
- CC50 [2]: > 8900 nM
- GI50 [3]: 3740 nM
- TGI [3]: >8.90E−06 Molar
- CC50 [3]: > 8900 nM

Compound: CSC[C@H]1C(=O)N(C)C[C@@H](NC(=O)c2nc3ccccc3cc2O)C(=O)NCC(=O)N(C)[C@H]2CSSC[C@@H](C(=O)N1C)N(C)C(=O)CNC(=O)[C@H](NC(=O)c1nc3ccccc3cc1O)CN(C)C(=O)[C@H](CSC)N(C)C2=O [Compound 2, {[3-HQA-D-Dap(Me&^1)-Gly-NMeCys(&^2)—NMe-Cys(Me)&^3][3-HQA-D-Dap(Me&^3)-Gly-NMeCys(&^2)—NMe-Cys(Me)&^1]]
- GI50 [1]: 4.08 nM
- TGI [1]: 4.26E−08 Molar
- CC50 [1]: 373 nM
- GI50 [2]: 20.8 nM
- TGI [2]: 1.13E−07 Molar
- CC50 [2]: 747 nM
- GI50 [3]: 3.39 nM
- TGI [3]: 2.00E−08 Molar
- CC50 [3]: 165 nM

Compound: Azatriostin A
- cytotoxic activity compared with Triostin A [4]: two orders of magnitude less active

From patent US8748388B2, “Antitumoral compounds” (Pharma Mar, S.A., priority 2008, dated 2014)
